Results taken from patent publication US10399966B2, “Compounds for treatment of trypanosomes and neurological pathogens and uses thereof” (The University of North Carolina at Chapel Hill, priority 2016, dated 2019).
Values joined by “and” are separate entries in the source; they are usually repeats but may differ in a detail not shown here. Equal values may be shown once.

Experiments:
[1] = system: Leishmania amazonensis; experiment: Antimicrobial activity against Leishmania amazonensis; format: cell-based; details: Table 1, Leishmania amazonensis
[2] = system: T. b. rhodesiense STIB900; experiment: Mouse efficacy model of acute T. brucei infection; format: in vivo; details: 50 mg/kg po b.i.d. x 4 days from day 2, no detectable parasitemia 60 days post-infection
Method: For acute efficacy studies in mice, experiments were carried out using the standard operating procedure used by WHO screening centers and done in compliance with the University of Washington Institutional Animal Care and Use Committee (IACUC) approved protocol. […] The test compound was administered by oral gavage at 50 mg/kg every 12 h from day 2 to day 5, for a total of 8 doses in a 200 μL volume of a vehicle consisting of DMSO (5%), Tween 80 (7%), and EtOH (3%) in physiological saline (0.9%) solution. Parasitemia was monitored via microscopic analysis of tail blood for 60 d post-infection, or until parasites were detected. Mice were removed from the experiment once parasites were detected in the blood. […] Efficacy PK blood samples were collected from three of the five mice prior to dose 7, and at 1 h and 6 h post-dose.

[3] = Brain and plasma time-course after oral dosing; format: in vivo, mouse
Method: The brain and plasma concentrations of compound 1 were studied in a time-course experiment following oral dosing at 50 mg/kg (Table 15). […] At 24 h, the plasma concentrations are undetectable and brain levels are down to sub-micromolar concentrations. Compared to the previous experiment (Table 14), the BPR ratio for 1 is lower at 1 h post-dose (1.48 vs. 4.0) probably due to the oral route of administration (as opposed to the ip route used before) leading to slower systemic absorption and distribution.

[4] = single oral dose 50 mg/kg, mice, 1 h
[5] = single oral dose 50 mg/kg, mice, 4 h
[6] = single oral dose 50 mg/kg, mice, 8 h

O=C(Nc1ccc2sc(-c3ccc(F)c(F)c3)nc2c1)N1CC[C@H](F)C1 [Compound 1, (S)-2-(3,4-Difluorophenyl)-5-(3-fluoro-N-pyrrolidylamido)benzothiazole]
EC50 [1]: > 10 µM
mice cured (cures) [2]: 5 of 5 and 5/5
AUC0 min-∞, brain ([3]; mouse, in vivo, po, 50 mg/kg): 43116.8 ± 2304 µM·min
AUC0 min-∞, plasma ([3]; mouse, in vivo, po, 50 mg/kg): 10798 ± 1975 µM·min
[compd]Brain ([3]; mouse, in vivo, po, 50 mg/kg): sub-micromolar
Brain/plasma ratio [3, 4]: 1.48
[compd]Brain [3, 4]: 38.23 ± 13.51 µM
[compd]Plasma [3, 4]: 27.14 ± 9.91 µM
Brain/plasma ratio [3, 5]: 4.43
[compd]Brain [3, 5]: 45.2 ± 10.4 µM
[compd]Plasma [3, 5]: 10.25 ± 2.21 µM
Brain/plasma ratio [3, 6]: 5.48
[compd]Brain [3, 6]: 48.08 ± 2.47 µM
[compd]Plasma [3, 6]: 8.97 ± 1.05 µM
